Results reported in PMC9859815 (Scientific Reports, 2023).
Where two headings read alike, the source gives them in different places.

Assays:
[1] = Single-dose, 2-sequence, 2-period crossover pharmacokinetic/bioequivalence study, fasting oral administration, healthy Chinese subjects (also by CYP2C19 phenotype and gender); assay type: in vivo; conditions: human, plasma, mean ± SD
Description: Forty subjects were randomly divided into two groups, with 20 patients in each group. […] The subjects in each group fasted after 21:00 the night before administration. […] The blood samples were centrifuged at 1700 g (4 °C) for 10 min within 1 h of collection. The centrifuged plasma was immediately aliquoted into 2 tubes with corresponding labels (1 for testing, 1 for backup, the volume of plasma in each tube should not be less than 500 µL) and stored at […] until analysis. The total time from whole blood collection to centrifugation to separate plasma and then stored in […] refrigerator should not exceed 2 h.
The sample pretreatment method was the protein precipitation method.
Terminal elimination rate constant λz and the apparent terminal elimination half-life (T1/2) were also needed. AUC0–∞ (the AUC from time 0 to infinity) used the formula: AUC0–∞ = AUC0–t + Ct/λ(T1/2 = 0.693/λz) to calculate.
SAS 9.4 software was used for statistical analysis.

[2] = Pakistani, cited from earlier work
[3] = cited from earlier work

COc1ccc2[nH]c([S+]([O-])Cc3ncc(C)c(OC)c3C)nc2c1 (centres unmarked) [omeprazole]
AUC(0-t) ([1]; CYP2C19 EM (N = 12)): 0.553 ± 0.391 µg·h/mL | half-life ([1]; CYP2C19 PM (N = 4)): 2.48 ± 0.24 h | AUC0–t ([2]; females): 8.74 ± 2.23 µg·h/mL | Cmax ([2]; females): 2.913 ± 0.61 µg/mL | AUC0–t ([2]; males): 6.67 ± 4.32 µg·h/mL | Cmax ([2]; males): 2.006 ± 0.98 µg/mL | Cmax ([3]; CYP2C19 EM, Caucasians): 0.285 ± 0.0829 µg/mL | T1/2 ([3]; CYP2C19 EM, Caucasians): 0.71 ± 0.1 h | AUC0–t ([3]; CYP2C19 EM, Japanese): 0.6183 ± 0.1419 µg·h/mL | Cmax ([3]; CYP2C19 EM, Japanese): 0.2511 ± 0.0462 µg/mL | AUC0–t ([3]; CYP2C19 EM, Korean): 0.71349 ± 0.55556 µg·h/mL | AUC0–t ([3]; CYP2C19 EM, West Asian): 0.2505 ± 0.0161 µg·h/mL | Cmax ([3]; CYP2C19 EM, West Asians): 0.1524 ± 0.00994 µg/mL | T1/2 ([3]; CYP2C19 EM, West Asians): 0.9 ± 0.01 h | AUC0–t ([3]; CYP2C19 EM, Whites): 0.6355 ± 0.2597 µg·h/mL | T1/2 ([3]; CYP2C19 PM, Caucasians): 2.68 ± 0.3 h | Cmax ([3]; CYP2C19 PM, East Asians (so in the source)): 0.5386 ± 0.0335 µg/mL | Cmax ([3]; CYP2C19 PM, Japanese): 1.0702 ± 0.1853 µg/mL | T1/2 ([3]; CYP2C19 PM, Japanese): 2.41 ± 0.15 h | T1/2 ([3]; CYP2C19 PM, West Asians): 2.42 ± 0.18 h
